# According to article PMC10541198, “Specific quinone reductase 2 inhibitors reduce metabolic burden and reverse Alzheimer’s disease phenotype in mice” (The Journal of Clinical Investigation, 2023):
# “And” between values parts separate entries of the source, which are not always exact repeats. Equal entries are not always repeated. Where two headings read alike, the source gives them in different places.
# Test: Pharmacokinetic study, IV and PO, plasma, brain and liver
# Type: in vivo, mouse
# Conditions: for tolerability / adverse effects: 50 mg/kg p.o. or 10 mg/kg i.v., up to 24 hours; for Plasma concentration, Mean: BQL = below LLOQ (10 ng/ml); for k el: read-out: Kel (Lambda_z) (converted); for MRT inf: read-out: MRT (MRTinf) (converted); for MRT last: read-out: MRT (MRTlast) (converted); for AUC(0-inf): read-out: AUC0→∞ (AUCINF_obs) (converted)
# Method: The purpose of this study was to determine the pharmacokinetic characteristics of compound NG-537 in C57BL/6J mice following intravenous (IV) and peroral (PO) administration. Levels of NG-537 were determined in blood plasma , brain and liver over time after a single dose .
# 3.1 Reagents and consumables
# DMSO Chromasolv Plus, HPLC grade, ≥99.7% (Sigma-Aldrich, USA; Cat #34869) Acetonitrile Chromasolv, gradient grade, for HPLC, ≥99.9% (Sigma-Aldrich, USA; Cat #34851) Methanol Chromasolv Plus, for HPLC, ≥99.9% (Sigma -Aldrich, USA; Cat 34860) Formic acid for mass spectrometry, ~98% (Fluka, USA; Cat #94318)
# Physiological saline (“Yuria -Pharm”, Ukraine, S/# AA13249/1 -1)
# Amyl alcohol (UOS, Ukraine) […]
# Compound Thiamethoxam was used as internal standard (IS).
# Compound NG-537 was supplied as dry powder. The batches of working formulations were prepared 20 min prior to the in vivo study. The vehicle was saline. To prepare the formulation, saline was added to the test compound. The mixture was vortexed for 1 min.
# Gradient HPLC system (Shimadzu, Japan)
# MS/MS detector API 3000 PE with TurboIonSpray Electrospray module (PE Sciex, Canada) VWR Membrane Nitrogen Generators N2-04-L1466. nitrogen purity 99%+ (VWR, USA) Water purification system Millipore Milli-Q Gradient A10 (Millipore, France) Fixed Speed Vortex Mixer “IKA Lab Dancer” (IKA®-Werke GmbH & Co. KG, Germany; IP-40) Centrifuge 4-15C (Qiagen) (Sigma, Germany)
# Ultrasonic bath (Daihan, Korea; WUC-A03H)
# (1 picture or pasted object on this page, not shown here)
# Study design, animal selection, handling and treatment were all in accordance with the Enamine PK study protocols and the Institutional Animal Care and Use Guidelines. Animal treatment and plasma samples preparation were conducted by the Animal Laboratory personnel at Enamine/Bienta. Male C57BL/6J mice (9-11 weeks old, body weight from 26.1 g to 39.8 g and average body weight across all groups 31.9 g SD = 3.3 g) were used in this study. The animals were randomly assigned to the treatment groups before the pharmacokinetic study; all animals were fasted for 4 h before dosing. Seven time points (5, 15, 30, 60, 240, 480, and 1440 min) were set for this pharmacokinet ic study. Each of the time point treatment group included 4 animals. There was also control group of one animal . Dosing was done according to the treatment schedule outlined in Table 1. Mice were injected IP with 2,2,2-tribromoethanol at the dose of 250 mg/kg prior to drawing the blood. Blood collection was performed from the left ventricle of the heart in tubes containing 10 μl of heparin solution (400 ui/ml). The brain and liver were perfused before sampling. The animal died due to exsanguination during perfusion under anesthesia. All samples were immediately processed, flash-frozen and stored at -70°C until subsequent analysis.
# Number of Delivery Target Dose Target Dose Target Dose
# Mice Compound ID Formulation Route Level Concentration Volume […]
# Plasma samples (40 μl) were mixed with 200 μl of IS solution. After mixing by pipetting and centrifuging for 4 min at 6,000 rpm, 2 μl of each supernatant was injected into LC-MS/MS system.
# Solution of compound Thiamethoxam (400 ng/ml in water-methanol mixture 1:9, v/v) was used as internal standard (IS) for quantification of NG-537 in plasma samples.
# Analyses of samples were conducted by the Bioanalytical Laboratory personnel at Enamine/Bienta.
# Concentrations of NG-537 were determined using high performance liquid chromatography/tandem mass spectrometry (HPLC-MS/MS). Shimadzu HPLC system consisted 2 isocratic pumps LC-10ADvp, an autosampler SIL-20AC, a sub-controller FCV-14AH and a degasser DGU-14A. Mass spectrometric analysis was performed using API 3000 (triple-quadrupole) instrument from AB Sciex (Canada) with an electro -spray (ESI) interface. The data acquisition and system control was performed using Analyst 1.5.2 software (AB […]
# 3.6 HPLC-MS/MS Conditions
# Chromatographic Conditions: […]
# [1] = IV 10 mg/kg, 15 min, listed as NG-537, 10 mg/kg
# [2] = PO 50 mg/kg, 15 min, listed as NG-537, 50 mg/kg
# [3] = male, C57BL/6J, mouse, brain, PO 50 mg/kg
# [4] = male, C57BL/6J, mouse, liver, PO 50 mg/kg
# [5] = male, C57BL/6J, mouse, plasma, IV 10 mg/kg
# [6] = male, C57BL/6J, mouse, plasma, PO 50 mg/kg
compound,measurement,setting,value
Cc1ccc(-c2cn3cccc(C)c3n2)cc1S(=O)(=O)N1CCNCC1 [YB-537],tolerability / adverse effects,,nontoxic and well tolerated
same,tolerability / adverse effects,listed as NG-537,No obvious adverse effects were observed
same,bioavailability,"C57BL/6J, mouse, in vivo, PO 50 mg/kg vs IV 10 mg/kg, male mice",82%
same,"Liver concentration, Mouse A-D",[1],17352 ng/g and 12944 ng/g and 10288 ng/g
same,"Plasma concentration, Mouse A-D",[1],1001 ng/mL and 1370 ng/mL and 836 ng/mL
same,"Plasma concentration, Mean","IV 10 mg/kg, 240 min",BQL
same,"Plasma concentration, Mouse A-D","IV 10 mg/kg, 240 min, all four BQL",BQL
same,"Plasma concentration, Mean","IV 10 mg/kg, 480 min",BQL
same,"Plasma concentration, Mouse A-D","IV 10 mg/kg, 480 min, all four BQL",BQL
same,"Plasma concentration, Mean","IV 10 mg/kg, 1440 min",BQL
same,"Plasma concentration, Mouse A-D","IV 10 mg/kg, 1440 min, all four BQL",BQL
same,"Brain concentration, Mouse A-D",[2],227 ng/g and 139 ng/g and 162 ng/g
same,"Plasma concentration, Mouse A-D",[2],1721 ng/mL and 2715 ng/mL and 1977 ng/mL
same,"Plasma concentration, Mouse A-D","PO 50 mg/kg, 30 min, listed as NG-537, 50 mg/kg",1258 ng/mL and 2296 ng/mL and 1618 ng/mL
same,"Brain concentration, Mouse A-D","PO 50 mg/kg, 60 min, listed as NG-537, 50 mg/kg",158 ng/g and 264 ng/g and 241 ng/g
same,"Plasma concentration, Mean","PO 50 mg/kg, 480 min",BQL
same,"Plasma concentration, Mean","PO 50 mg/kg, 1440 min",BQL
same,"Plasma concentration, Mouse A-D","PO 50 mg/kg, 1440 min, all four BQL",BQL
same,AUC0→t=240min (AUClast),"brain, PO 50 mg/kg",30500 ng·min/g
same,AUC0→∞ (AUCINF_obs),"brain, PO 50 mg/kg",33100 ng·min/g
same,time of peak brain concentration after oral administration,"brain, PO 50 mg/kg",approximately one
same,time of peak brain concentration following p.o. administration,"brain, PO 50 mg/kg",1 h
same,"peak brain concentration, molar equivalent","brain, oral administration, equivalent of 203 ng/g",approximately 500 nM
same,AUC0→t=240min (AUClast),"liver, PO 50 mg/kg",5530000 ng·min/g
same,AUC0→∞ (AUCINF_obs),"liver, PO 50 mg/kg",5850000 ng·min/g
same,concentration at 15 min,"male, C57BL/6J, mouse, brain, iv, 10 mg/kg, IV 10 mg/kg, 15 min, read-out: Brain concentration, Mean",1070 ng/g
same,concentration at 15 min,"male, C57BL/6J, mouse, brain, po, 50 mg/kg, PO 50 mg/kg, 15 min, read-out: Brain concentration, Mean",172 ng/g
same,concentration at 15 min,"male, C57BL/6J, mouse, brain, po, 50 mg/kg, PO 50 mg/kg, 15 min, read-out: Brain concentration, Mouse A-D",161 ng/g
same,concentration at 60 min,"male, C57BL/6J, mouse, brain, po, 50 mg/kg, PO 50 mg/kg, 60 min, read-out: Brain concentration, Mean",203 ng/g
same,concentration at 60 min,"male, C57BL/6J, mouse, brain, po, 50 mg/kg, PO 50 mg/kg, 60 min, read-out: Brain concentration, Mouse A-D",148 ng/g
same,concentration at 240 min,"male, C57BL/6J, mouse, brain, po, 50 mg/kg, PO 50 mg/kg, 240 min, BQL = below LLOQ, read-out: Brain concentration, Mouse A-D",37 ng/g
same,concentration at 240 min,"male, C57BL/6J, mouse, brain, po, 50 mg/kg, PO 50 mg/kg, 240 min, read-out: Brain concentration, Mean",28 ng/g
same,half-life,"male, C57BL/6J, mouse, in vivo, po, 50 mg/kg, brain, PO 50 mg/kg, read-out: T1/2 (HL_Lambda_z)",63.5 min
same,half-life,"male, C57BL/6J, mouse, in vivo, po, 50 mg/kg, mouse brain, acute oral dosing, read-out: clearance half life (converted)",~60 min
same,concentration at 15 min,"male, C57BL/6J, mouse, liver, iv, 10 mg/kg, IV 10 mg/kg, 15 min, read-out: Liver concentration, Mean",13100 ng/g
same,concentration at 15 min,"male, C57BL/6J, mouse, liver, iv, 10 mg/kg, IV 10 mg/kg, 15 min, read-out: Liver concentration, Mouse A-D",12000 ng/g
same,concentration at 15 min,"male, C57BL/6J, mouse, liver, po, 50 mg/kg, PO 50 mg/kg, 15 min, read-out: Liver concentration, Mean",67700 ng/g
same,concentration at 60 min,"male, C57BL/6J, mouse, liver, po, 50 mg/kg, PO 50 mg/kg, 60 min, read-out: Liver concentration, Mean",28000 ng/g
same,concentration at 240 min,"male, C57BL/6J, mouse, liver, po, 50 mg/kg, PO 50 mg/kg, 240 min, read-out: Liver concentration, Mean",3900 ng/g
same,concentration at 5 min,"male, C57BL/6J, mouse, plasma, iv, 10 mg/kg, IV 10 mg/kg",2010 ng/mL
same,concentration at 15 min,"male, C57BL/6J, mouse, plasma, iv, 10 mg/kg, IV 10 mg/kg, 15 min, read-out: Plasma concentration, Mean",1020 ng/mL
same,concentration at 15 min,"male, C57BL/6J, mouse, plasma, iv, 10 mg/kg, IV 10 mg/kg, 15 min, read-out: Plasma concentration, Mouse A-D",863 ng/mL
same,concentration at 30 min,"male, C57BL/6J, mouse, plasma, iv, 10 mg/kg, IV 10 mg/kg, 30 min, read-out: Plasma concentration, Mean",432 ng/mL
same,concentration at 60 min,"male, C57BL/6J, mouse, plasma, iv, 10 mg/kg, IV 10 mg/kg, 60 min, read-out: Plasma concentration, Mean",191 ng/mL
same,concentration at 5 min,"male, C57BL/6J, mouse, plasma, po, 50 mg/kg, PO 50 mg/kg",451 ng/mL
same,concentration at 15 min,"male, C57BL/6J, mouse, plasma, po, 50 mg/kg, PO 50 mg/kg, 15 min, read-out: Plasma concentration, Mean",2030 ng/mL
same,concentration at 15 min,"male, C57BL/6J, mouse, plasma, po, 50 mg/kg, PO 50 mg/kg, 15 min, read-out: Plasma concentration, Mouse A-D",1720 ng/mL
same,concentration at 30 min,"male, C57BL/6J, mouse, plasma, po, 50 mg/kg, PO 50 mg/kg, 30 min, read-out: Plasma concentration, Mean",1720 ng/mL
same,concentration at 30 min,"male, C57BL/6J, mouse, plasma, po, 50 mg/kg, PO 50 mg/kg, 30 min, read-out: Plasma concentration, Mouse A-D",1730 ng/mL
same,concentration at 60 min,"male, C57BL/6J, mouse, plasma, po, 50 mg/kg, PO 50 mg/kg, 60 min, read-out: Plasma concentration, Mean",1130 ng/mL
same,concentration at 240 min,"male, C57BL/6J, mouse, plasma, po, 50 mg/kg, PO 50 mg/kg, 240 min, read-out: Plasma concentration, Mean",151 ng/mL
same,concentration at 480 min,"male, C57BL/6J, mouse, plasma, po, 50 mg/kg, PO 50 mg/kg, 480 min, three BQL, 15 marked as Grubbs outlier, read-out: Plasma concentration, Mouse A-D",15 ng/mL
same,Tmax,[3],60 min
same,Cmax,"male, C57BL/6J, mouse, brain, PO 50 mg/kg, read-out: Cmax (peak concentration)",203 ng/g
same,k el,[3],0.000182 s⁻¹
same,MRT inf,[3],88.2 min
same,MRT last,[3],67.5 min
same,Tmax,[4],15 min
same,Cmax,"male, C57BL/6J, mouse, liver, PO 50 mg/kg, read-out: Cmax",67700 ng/g
same,k el,[4],0.000203 s⁻¹
same,MRT inf,[4],69.5 min
same,MRT last,[4],54.9 min
same,half-life,"male, C57BL/6J, mouse, liver, PO 50 mg/kg, read-out: T1/2 (HL_Lambda_z)",56.8 min
same,C0,[5],2820 ng/mL
same,AUC(0-t),"male, C57BL/6J, mouse, plasma, IV 10 mg/kg, read-out: AUC0→t=60min (AUClast) (converted)",790 ng·h/mL
same,AUC(0-inf),[5],867 ng·h/mL
same,clearance,"male, C57BL/6J, mouse, plasma, IV 10 mg/kg, read-out: CL (Cl_obs)",190 mL/min/kg
same,k el,[5],0.000695 s⁻¹
same,MRT inf,[5],21.4 min
same,MRT last,[5],15.4 min
same,half-life,"male, C57BL/6J, mouse, plasma, IV 10 mg/kg, read-out: T1/2 (HL_Lambda_z)",16.6 min
same,Vd,"male, C57BL/6J, mouse, plasma, IV 10 mg/kg, read-out: Vd (Vz_obs)",5 L/kg
same,Tmax,[6],15 min
same,AUC(0-t),"male, C57BL/6J, mouse, plasma, PO 50 mg/kg, read-out: AUC0→t=240min (AUClast) (converted)",3330 ng·h/mL
same,AUC(0-inf),[6],3550 ng·h/mL
same,Cmax,"male, C57BL/6J, mouse, plasma, PO 50 mg/kg, read-out: Cmax",2030 ng/mL
same,k el,[6],0.000192 s⁻¹
same,MRT inf,[6],76.2 min
same,MRT last,[6],59.8 min
same,Cmax,"plasma, IV 10 mg/kg (summary table)",2010 ng/ml(g)
